# Assay results published in patent publication US10435371B2, “Multifunctional aminoquinoline therapeutic agent” (LOHOCLA RESEARCH CORPORATION, priority 2014, dated 2019).
# Experiments:
# delta opiate receptor [1] = target: T1, delta opiate receptor (Homo sapiens, UniProt P41143); assay: cAMP accumulation, HEK293 cells transfected with DA receptor, delta opiate receptor and AC7; type: cell-based; set-up: expressed in transfected cells; host or cells: HEK293 (ATCC), calcium phosphate transient transfection; details: naltrindole 10 μM
# T1 sequence (P41143 whole entry): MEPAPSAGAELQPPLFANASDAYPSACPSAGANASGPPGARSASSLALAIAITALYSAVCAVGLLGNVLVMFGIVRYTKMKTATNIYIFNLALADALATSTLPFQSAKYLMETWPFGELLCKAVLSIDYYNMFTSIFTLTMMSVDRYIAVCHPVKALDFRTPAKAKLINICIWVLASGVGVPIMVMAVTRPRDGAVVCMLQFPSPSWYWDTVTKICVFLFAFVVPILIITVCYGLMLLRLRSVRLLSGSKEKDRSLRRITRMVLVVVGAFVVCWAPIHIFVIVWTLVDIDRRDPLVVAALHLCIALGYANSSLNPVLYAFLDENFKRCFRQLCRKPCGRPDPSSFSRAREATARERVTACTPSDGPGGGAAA
# delta opiate receptor [2] = target: T1, delta opiate receptor; assay: cAMP accumulation, HeLa cells transfected with D1 receptor, DOR and AC5; type: cell-based; set-up: expressed in transfected cells; details: not shown
# [3] = system: rats treated with Complete Freund's Adjuvant; assay: Naltrindole reversal of the effect of DCUKA on CFA-induced neuropathic pain; type: in vivo, rat
# Protocol: Rats were tested for baseline mechanical pain threshold (von Frey test) and given an intraplantar injection of Complete Freunds Adjuvant (CFA) in the left hind paw.
# [4] = system: rats treated with Complete Freund's Adjuvant; assay: Combination with morphine, CFA-induced thermal hyperalgesia (radiant heat paw withdrawal test); type: in vivo, rat; details: thermal hyperalgesia after CFA
# Protocol: Thermal Hypersensitivity Test (Radiant Heat Paw Withdrawal Test). Rats were placed in clear plastic chambers on a glass surface and were habituated for 15 minutes before testing. Thermal sensitivity was measured by using paw withdrawal latency to a radiant heat stimulus. A radiant heat source (i.e., infrared) was activated with a timer and focused onto the plantar surface of the left hind paw. A motion detector that halted both lamp and timer when the paw was withdrawn determined paw withdrawal latency. The latencies were measured before and after drug or vehicle administration. A maximum cutoff of 33 seconds was used to prevent tissue damage.
# [5] = system: rats treated with Complete Freund's Adjuvant; assay: Combination with morphine, CFA-induced pain, mechanical pain threshold; type: in vivo, rat; details: FIG. 15 Panel A
# [6] = system: rats treated with cisplatin; assay: Reversal of cisplatin-induced neuropathic pain (von Frey mechanical pain threshold); type: in vivo, rat; details: cisplatin i.p. 7 mg/kg total, day 14; 30 mg/kg oral (equimolar to DCUKA and BCUKA); 1 and 2 hours; FIG. 6
# [7] = system: alcohol-dependent male Wistar rats; assay: Alcohol deprivation model of relapse drinking in alcohol-dependent rats; type: in vivo, rat; details: for Relapse drinking (alcohol intake after deprivation): FIG. 17
# Protocol: This model is thoroughly described in a paper by (Spanagel and Holter, 1999). The model consists of a conditioning phase where individually housed male Wistar rats are allowed ad libitum access to food and 0, 5, 10 and 20% alcohol solutions in a four-bottle choice paradigm. The rats are weighed every 3rd and 4th day and food and fluid consumption is measured. The positions of bottles are changed once a week and after two months of continuous alcohol access, rats are deprived of alcohol for two weeks. After the deprivation phase, all alcohol solutions are presented again for 5 weeks and the procedure is repeated for ˜1 year. At this point an alcohol deprivation phase is instituted. Pre-deprivation (baseline) drinking is recorded for 3-4 days and then all alcohol is taken from the animals and they are only given water to drink for two weeks. Following alcohol deprivation, alcohol intake (total grams of ethanol/kg body weight) and water intake (ml/kg body weight) are measured daily. The alcohol preference ratio is calculated as (ethanol consumption [g/kg])/(water consumption [ml/kg]).
# For this experiment, animals were divided into groups of 6-8 rats such that the mean baseline total alcohol intake was approximately the same (˜2.8 g/kg/day) across all groups. Baseline drinking was monitored followed by 14 days of alcohol deprivation. Each animal then received i.p. injections of DCUK-OEt twice daily at 12 hour intervals starting at 7 PM prior to the reintroduction of ethanol for a total of 3 (20 mg/kg) or 5 injections (75 mg/kg). Acamprosate, an already marketed agent for reducing relapse, was used as a positive control and four doses of 50 mg/kg or 200 mg/kg were injected over a two-day period. Alcohol bottles were re-introduced after the first (acamprosate) or second (DCUK-OEt) injection.
# [8] = target: T2, GABA-A receptors (α1, β2, γ2s subunits) (UniProt P18508+P47870+P62813); assay: Two-electrode voltage clamp, GABA-A receptors expressed in Xenopus oocytes; type: cell-based, rat α1 and γ2s, human β2; details: for Efficacy among five DCUK derivatives: potentiation of GABA response, FIG. 4C
# T2 construct: expressed in transfected cells; host or cells: Xenopus laevis oocytes injected with capped cRNAs (α1:β2:γ2s 2:2:20 ng)
# T2 sequence (P62813 28-455): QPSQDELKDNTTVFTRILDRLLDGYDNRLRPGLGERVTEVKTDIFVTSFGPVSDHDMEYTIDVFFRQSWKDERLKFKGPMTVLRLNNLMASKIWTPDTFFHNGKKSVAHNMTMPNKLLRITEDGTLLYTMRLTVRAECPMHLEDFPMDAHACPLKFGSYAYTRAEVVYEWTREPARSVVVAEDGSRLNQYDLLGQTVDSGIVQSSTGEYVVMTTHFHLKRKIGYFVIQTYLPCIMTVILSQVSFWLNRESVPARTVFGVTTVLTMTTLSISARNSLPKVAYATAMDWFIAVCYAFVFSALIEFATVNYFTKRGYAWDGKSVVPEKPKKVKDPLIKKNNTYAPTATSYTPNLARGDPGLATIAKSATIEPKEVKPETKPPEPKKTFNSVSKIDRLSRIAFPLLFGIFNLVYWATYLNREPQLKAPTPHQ
# T2 sequence (P47870 26-474 isoform P47870-1 limits assumed): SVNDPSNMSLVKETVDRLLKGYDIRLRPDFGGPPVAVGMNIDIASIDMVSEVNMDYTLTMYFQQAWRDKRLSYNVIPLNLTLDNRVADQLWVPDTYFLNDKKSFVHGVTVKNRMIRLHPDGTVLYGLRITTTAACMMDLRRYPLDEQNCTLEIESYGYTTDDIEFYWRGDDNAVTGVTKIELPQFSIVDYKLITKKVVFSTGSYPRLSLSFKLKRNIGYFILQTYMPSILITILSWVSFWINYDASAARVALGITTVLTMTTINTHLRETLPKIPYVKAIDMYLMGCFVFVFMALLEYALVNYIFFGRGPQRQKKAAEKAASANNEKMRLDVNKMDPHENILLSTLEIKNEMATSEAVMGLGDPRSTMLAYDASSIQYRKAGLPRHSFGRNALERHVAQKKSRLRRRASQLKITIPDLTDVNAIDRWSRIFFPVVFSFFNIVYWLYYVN
# T2 sequence (P18508 39-466): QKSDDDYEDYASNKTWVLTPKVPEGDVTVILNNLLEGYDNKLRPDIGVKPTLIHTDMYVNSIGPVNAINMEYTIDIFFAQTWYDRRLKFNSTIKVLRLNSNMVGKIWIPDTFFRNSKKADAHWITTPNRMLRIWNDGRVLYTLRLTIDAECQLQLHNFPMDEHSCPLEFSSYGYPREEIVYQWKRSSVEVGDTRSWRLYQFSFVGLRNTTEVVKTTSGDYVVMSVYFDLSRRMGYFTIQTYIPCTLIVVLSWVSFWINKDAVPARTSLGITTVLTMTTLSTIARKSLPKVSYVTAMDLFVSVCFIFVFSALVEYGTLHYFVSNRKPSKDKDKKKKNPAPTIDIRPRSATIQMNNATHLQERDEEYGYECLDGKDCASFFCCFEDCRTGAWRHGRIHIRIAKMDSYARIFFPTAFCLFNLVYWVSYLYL
# Protocol: Xenopus laevis frogs were obtained from Nasco (Fort Atkinson, Wis., USA). The complementary DNAs encoding the GABAA subunits rat α1 and γ2s and human β2 were provided by Dr. M. H. Akabas and Dr. Paul Whiting, respectively. The in vitro transcription of α1, β2, and γ2s subunits was performed using mMessage mMachine® (Life Technologies, Grand Island, N.Y.). After isolation of Xenopus laevis oocytes, they were injected with capped complementary RNAs encoding α1, β2, and γ2s subunits in a ratio 2:2:20 ng. The injected oocytes were incubated at 15° C. in sterilized Barth's solution [MBS; composition: 88 mM NaCl, 1 mM KCl, 10 mM HEPES, 0.82 mM MgSO4, 2.4 mM NaHCO3, 0.91 mM CaCl2), and 0.33 mM Ca(NO3)2, pH 7.5] for 3-5 days before recording. All surgery was performed according to an approved institutional protocol. The responses of GABAARs expressed in oocytes were studied through two-electrode voltage clamp (Oocyte Clamp OC-725C, Warner Instruments, Hamden, Conn.), recording through a POWERLAB 4/30 system (ADInstruments, Colorado Springs, Colo.). The oocyte was placed in a chamber perfused with MBS, and voltage-clamped at −70 mV.
# ethanol dependent rats = assay: Operant responding for alcohol in ethanol vapor-exposed dependent rats; type: in vivo, rat; details: FIG. 18
# From the text: This example illustrates that ethanol dependent rats are motivated to work for ethanol reward during a period of forced abstinence and that DCUK-OEt reduces responding for the alcohol reward.
# The methods used in this study are extensively described in (Vendruscolo et al., 2012). The rats were first trained to self-administer ethanol in an operant chamber. The rats were given free-choice access to alcohol (10% w/v) and water for 1 day in their home cages to habituate them to the taste of alcohol. The rats were then subjected to an overnight session in the operant chambers with access to one lever that delivered water (FR1). Food was available ad libitum during this training. After 1 day off, the rats were subjected to a 2 hour session (FR1) for 1 day and a 1 hour session (FR1) the next day, with one lever delivering alcohol. All of the subsequent sessions lasted 30 minutes, and two levers were available (left lever: water; right lever: alcohol). Once trained, the rats were made dependent by chronic, intermittent exposure to alcohol vapors (Gilpin et al., 2008). They underwent cycles of 14 hours of ethanol exposure (blood alcohol levels during vapor exposure ranged between 150 and 250 mg %) and 10 hours in the absence of ethanol vapor, during which behavioral testing for acute withdrawal occurred (i.e., 6-8 hours after vapor was turned off, when brain and blood alcohol levels were negligible). Nondependent rats were those not exposed to alcohol vapor. Pharmacological testing occurred after at least 2 months of vapor exposure, when full dependence was observed. DCUKA-OEt was administered i.p. at the doses specified in FIG. 18, sixty minutes prior to placing the animal in the operant chamber. The vehicle for DCUK-OEt was injected in certain animals as a control.
# cannabinoid CB1 receptor = target: T3, cannabinoid CB1 receptor (Homo sapiens, UniProt P21554); assay: cAMP accumulation, HeLa cells transfected with CB1 receptor, D1 receptor and AC7; type: cell-based; details: for Effect on cAMP accumulation in the presence of dopamine: CB1 receptor, D1, AC7, DCUK-OEt 10 μM, ACEA 10 μM, FIG. 1
# T3 construct: expressed in transfected cells; host or cells: HeLa (ATCC), calcium phosphate transient transfection
# T3 sequence (P21554 whole entry): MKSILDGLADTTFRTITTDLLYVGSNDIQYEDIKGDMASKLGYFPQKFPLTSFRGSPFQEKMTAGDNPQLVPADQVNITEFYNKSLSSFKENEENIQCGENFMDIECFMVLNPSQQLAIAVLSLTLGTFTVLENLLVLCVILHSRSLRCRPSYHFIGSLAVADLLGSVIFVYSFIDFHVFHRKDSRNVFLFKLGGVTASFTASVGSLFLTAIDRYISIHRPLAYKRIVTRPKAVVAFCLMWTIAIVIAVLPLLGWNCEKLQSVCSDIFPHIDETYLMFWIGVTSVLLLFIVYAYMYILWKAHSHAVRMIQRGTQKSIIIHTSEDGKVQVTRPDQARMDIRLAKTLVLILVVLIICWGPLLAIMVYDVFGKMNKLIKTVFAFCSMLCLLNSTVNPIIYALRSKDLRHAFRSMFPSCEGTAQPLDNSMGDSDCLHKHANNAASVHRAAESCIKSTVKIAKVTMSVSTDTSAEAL
# [9] = target: GABA site, GABA-A Receptor; assay: PDSP radioligand displacement, [^3H]Muscimol; set-up: species or system rat; details: read-out: Binding constant Ki, GABA site, GABA-A Receptor
# [10] = system: rats treated with streptozotocin; assay: Combination with aspirin, STZ-induced neuropathic pain (von Frey); type: in vivo, rat; details: aspirin 25 mg/kg, 60 min before test; FIG. 16
# Protocol: After administration of streptozotocin (STZ) as described in Example 5, rats were tested for allodynia using a von Frey apparatus. Sixty minutes prior to testing, rats were divided into four groups. Group 1 received vehicle; group 2 received DCUKA; group 3 received aspirin; and group 4 received a combination of DCUKA and aspirin.
smiles,measurement,setting,value
"Oc1ccc2c3c1O[C@H]1c4[nH]c5ccccc5c4C[C@@]4(O)[C@@H](C2)N(CC2CC2)CC[C@]314 [Naltrindole, reference compound]",Effect of DOR antagonist on the BCUKA-induced cAMP increase,delta opiate receptor [1],reversed
same,Effect of DOR antagonist on the DCUKA inhibition of cAMP accumulation,delta opiate receptor [2],reversed
same,Effect of intraplantar naltrindole on the DCUKA effect,"[3]; Naltrindole 10 μg per paw s.c. 45 min after DCUKA 50 mg/kg oral, tested 15 min later",reversed the anti-allodynic effect of DCUKA
same,Effect of naltrindole alone on pain threshold,[3]; Naltrindole 10 μg per paw with vehicle,no effect on its own
"CN1CC[C@]23c4c5ccc(O)c4O[C@H]2[C@@H](O)C=C[C@H]3[C@H]1C5 [morphine, reference compound]",Antihyperalgesic response,[4]; morphine alone 0.2 mg/kg,~20%
same,"Analgesia, each agent alone at the dose used for the combination",[5],ineffective in producing analgesia
"NCC1(CC(=O)O)CCCCC1 [Gabapentin, gabapentin, reference compound]","Mechanical pain threshold, ratio to baseline",[6],did not significantly reverse
"CC(=O)NCCCS(=O)(=O)O [acamprosate, reference compound]",Relapse drinking (alcohol intake after deprivation),"[7]; acamprosate 50 mg/kg, four doses over two days, positive control","transient, but significant, reduction in relapse drinking"
CCOC(=O)c1cc(NC(=O)N(c2ccccc2)c2ccccc2)c2c(Cl)cc(Cl)cc2n1 [DCUK-OEt],Antihyperalgesic response,[4]; 6.4 mg of DCUK-OEt combined with 0.2 mg/kg morphine,40%
same,Character of action at the GABA-A receptor,[8]; FIG. 4A,positive allosteric modulators (PAM)
same,GABA-induced chloride currents,"[8]; co-applied with EC10 GABA, FIG. 4A",significantly enhanced GABA-induced currents
same,Efficacy among five DCUK derivatives,[8],most efficacious
same,"Chloride currents, compound alone","[8]; without GABA, FIG. 4A",no effect on chloride currents by themselves
same,Alcohol self-administration,"ethanol dependent rats; 20 mg/kg i.p., 60 min before session, ethanol vapor-exposed rats",brought the ethanol vapor exposed rats down to the same level of self-administration as non-ethanol pretreated control rats
same,Lever pressing for ethanol,"ethanol dependent rats; 35 and 50 mg/kg i.p., alcohol-dependent rats",reduced lever pressing for ethanol to even lower levels
same,Lever pressing for water,"ethanol dependent rats; all doses tested, alcohol dependent rats",No effect
same,Character of action at the CB1 cannabinoid receptor,"cannabinoid CB1 receptor; AC7, alone and together with ACEA",weak partial agonist
same,Effect on cAMP accumulation in the presence of dopamine,cannabinoid CB1 receptor,significant increase in cAMP accumulation
same,Relapse drinking (alcohol intake after deprivation),"[7]; 20 mg/kg i.p. twice daily, 3 injections","transient, but significant, reduction in relapse drinking"
same,Water consumption,"[7]; 75 mg/kg DCUK-OEt, data not shown",increased consumption of water
same,Relapse drinking (alcohol intake after deprivation),"[7]; 75 mg/kg i.p. twice daily, 5 injections",almost complete abolition of alcohol intake
same,Ki,[9],1.7 ± 0.3 µM
"CC(=O)Oc1ccccc1C(=O)O [aspirin, reference compound]","Effect on allodynia, alone",[10],do not have any significant effect on allodynia
"CCCC(=O)c1cc(NC(=O)N(c2ccccc2)c2ccccc2)c2c(Cl)cc(Cl)cc2n1 [DCUK-butanone, 3-(2-Butyryl-5,7-dichloroquinolin-4-yl)-1,1-diphenylurea]",Efficacy among five DCUK derivatives,[8],most efficacious
"CCCCC/C=C\C/C=C\C/C=C\C/C=C\CCCC(=O)NCCCl [ACEA, reference compound]",Effect on cAMP accumulation in the presence of dopamine,cannabinoid CB1 receptor,increased the accumulation of cAMP
